Assay results from US9346786B2, “Pyrrolidine compounds” (Hoffmann-La Roche Inc., priority 2009, dated 2016).

Target: recombinant human NK3 receptor (Homo sapiens (Human), UniProt P29371)
Assay: biochemical
Type: binding
Settings: [3H]SR142801, membranes of HEK293 cells transiently expressing recombinant human NK3 receptor; read-out: Data Ki (hNK-3 receptor affinity)

Sequence of recombinant human NK3 receptor (P29371 whole entry): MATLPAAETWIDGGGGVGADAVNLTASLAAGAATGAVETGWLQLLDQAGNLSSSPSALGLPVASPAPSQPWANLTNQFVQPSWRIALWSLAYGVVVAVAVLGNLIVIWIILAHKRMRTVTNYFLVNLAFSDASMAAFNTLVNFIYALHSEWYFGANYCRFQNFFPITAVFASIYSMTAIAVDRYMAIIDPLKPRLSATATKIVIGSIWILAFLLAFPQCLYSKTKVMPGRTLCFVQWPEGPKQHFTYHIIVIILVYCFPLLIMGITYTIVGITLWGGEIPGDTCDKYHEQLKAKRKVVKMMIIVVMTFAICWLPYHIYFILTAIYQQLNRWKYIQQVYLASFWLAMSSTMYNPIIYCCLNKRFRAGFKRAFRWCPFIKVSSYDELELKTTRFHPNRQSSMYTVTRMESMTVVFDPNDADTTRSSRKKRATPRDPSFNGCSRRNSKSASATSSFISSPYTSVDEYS

| Structure (SMILES) | Ki |
| --- | --- |
| CCN(C(=O)Oc1ccc(F)cc1)[C@@H]1CN(C(=O)C2CCN(c3ccc(C(F)(F)F)cn3)CC2)C[C@H]1c1ccc(Cl)c(F)c1 [Example 42, [(3S,4R)-4-(4-Chloro-3-fluoro-phenyl)-1-(5′-trifluoromethyl-3,4,5,6-tetrahydro-2H-[1,2′]bipyridinyl-4-carbonyl)-pyrrolidin-3-yl]-ethyl-carbamic acid 4-fluoro-phenyl ester] | 2 nM |
| CCN(C(=O)Oc1ccc(F)cc1)[C@@H]1CN(C(=O)C2CCN(c3ccc(C#N)nn3)CC2)C[C@H]1c1ccc(Cl)c(F)c1 [Example 57, {(3S,4R)-4-(4-Chloro-3-fluoro-phenyl)-1-[1-(6-cyano-pyridazin-3-yl)-piperidine-4-carbonyl]-pyrrolidin-3-yl}-ethyl-carbamic acid 4-fluoro-phenyl ester] | 0.7 nM |
| CCN(C(=O)Oc1ccc(F)cc1)[C@@H]1CN(C(=O)C2CCN(C(=O)C3(C)COC3)CC2)C[C@H]1c1ccc(Cl)cc1 [Example 88, {(3S,4R)-4-(4-Chloro-phenyl)-1-[1-(3-methyl-oxetane-3-carbonyl)-piperidine-4-carbonyl]-pyrrolidin-3-yl}-ethyl-carbamic acid 4-fluoro-phenyl ester] | 5.6 nM |
| CCN(C(=O)Oc1ccc(F)cc1)[C@@H]1CN(C(=O)C2CCN(C(=O)C3(C(F)(F)F)CCC3)CC2)C[C@H]1c1ccc(Cl)cc1 [Example 92, {(3S,4R)-4-(4-Chloro-phenyl)-1-[1-(1-trifluoromethyl-cyclobutanecarbonyl)-piperidine-4-carbonyl]-pyrrolidin-3-yl}-ethyl-carbamic acid 4-fluoro-phenyl ester] | 6.6 nM |
| CCN(C(=O)Oc1ccc(F)cc1)[C@@H]1CN(C(=O)C2CCN(C(=O)C3CC3(F)F)CC2)C[C@H]1c1ccc(Cl)cc1 (stereo partly drawn) [Example 96, {(3S,4R)-4-(4-Chloro-phenyl)-1-[1-(2,2-difluoro-cyclopropanecarbonyl)-piperidine-4-carbonyl]-pyrrolidin-3-yl}-ethyl-carbamic acid 4-fluoro-phenyl ester] | 3.4 nM |
| CCN(C(=O)Oc1ccc(F)cc1)[C@@H]1CN(C(=O)C2CCN(c3ccc(C(N)=O)cn3)CC2)C[C@H]1c1ccc(Cl)cc1 [Example 111, [(3S,4R)-1-(5′-Carbamoyl-3,4,5,6-tetrahydro-2H-[1,2′]bipyridinyl-4-carbonyl)-4-(4-chloro-phenyl)-pyrrolidin-3-yl]-ethyl-carbamic acid 4-fluoro-phenyl ester] | 7.4 nM |
| CCN(C(=O)Oc1ccc(F)cc1)[C@@H]1CN(C(=O)C2CCN(c3ccc(S(C)(=O)=O)cn3)CC2)C[C@H]1c1ccc(Cl)c(F)c1 [Example 63, [(3S,4R)-4-(4-Chloro-3-fluoro-phenyl)-1-(5′-methanesulfonyl-3,4,5,6-tetrahydro-2H-[1,2′]bipyridinyl-4-carbonyl)-pyrrolidin-3-yl]-ethyl-carbamic acid 4-fluoro-phenyl ester] | 0.7 nM |
| CCN(C(=O)Oc1ccc(F)cc1)[C@@H]1CN(C(=O)C2CCN(C(=O)C3CC(F)(F)C3)CC2)C[C@H]1c1ccc(Cl)cc1 [Example 90, {(3S,4R)-4-(4-Chloro-phenyl)-1-[1-(3,3-difluoro-cyclobutanecarbonyl)-piperidine-4-carbonyl]-pyrrolidin-3-yl}-ethyl-carbamic acid 4-fluoro-phenyl ester] | 2.4 nM |
| CCN(C(=O)Oc1ccc(F)cc1)[C@@H]1CN(C(=O)C2CCN(c3ccc(C(N)=O)cn3)CC2)C[C@H]1c1ccc(Cl)c(Cl)c1 [Example 115, [(3S,4R)-1-(5′-Carbamoyl-3,4,5,6-tetrahydro-2H-[1,2′]bipyridinyl-4-carbonyl)-4-(3,4-dichloro-phenyl)-pyrrolidin-3-yl]-ethyl-carbamic acid 4-fluoro-phenyl ester] | 0.9 nM |
| CCN(C(=O)Oc1ccc(F)cc1)[C@@H]1CN(C(=O)C2CCN(c3ccc(C#N)nc3)CC2)C[C@H]1c1ccc(Cl)c(F)c1 [Example 43, [(3S,4R)-4-(4-Chloro-3-fluoro-phenyl)-1-(6′-cyano-3,4,5,6-tetrahydro-2H-[1,3′]bipyridinyl-4-carbonyl)-pyrrolidin-3-yl]-ethyl-carbamic acid 4-fluoro-phenyl ester] | 0.3 nM |
| CCN(C(=O)Oc1ccc(F)cc1)[C@@H]1CN(C(=O)C2CCN(C(=O)C3CCOC(C)(C)C3)CC2)C[C@H]1c1ccc(Cl)cc1 (stereo partly drawn) [Example 98, {(3S,4R)-4-(4-Chloro-phenyl)-1-[1-(2,2-dimethyl-tetrahydro-pyran-4-carbonyl)-piperidine-4-carbonyl]-pyrrolidin-3-yl}-ethyl-carbamic acid 4-fluoro-phenyl ester] | 4.7 nM |
| CCN(C(=O)Oc1ccc(F)cc1)[C@@H]1CN(C(=O)C2CCN(c3ccc(Cl)cn3)CC2)C[C@H]1c1ccc(F)c(Cl)c1 [Example 118, [(3S,4R)-4-(3-Chloro-4-fluoro-phenyl)-1-(5′-chloro-3,4,5,6-tetrahydro-2H-[1,2′]bipyridinyl-4-carbonyl)-pyrrolidin-3-yl]-ethyl-carbamic acid 4-fluoro-phenyl ester] | 1.8 nM |
| CCN(C(=O)Oc1ccc(F)cc1)[C@@H]1CN(C(=O)C2CCN(C(=O)C3CCC3)CC2)C[C@H]1c1ccc(Cl)cc1 [Example 87, [(3S,4R)-4-(4-Chloro-phenyl)-1-(1-cyclobutanecarbonyl-piperidine-4-carbonyl)-pyrrolidin-3-yl]-ethyl-carbamic acid 4-fluoro-phenyl ester] | 2.1 nM |
| CCN(C(=O)Oc1ccc(F)cc1)[C@@H]1CN(C(=O)C2CCN(c3ccc(C)cn3)CC2)C[C@H]1c1ccc(Cl)c(F)c1 [Example 47, [(3S,4R)-4-(4-Chloro-3-fluoro-phenyl)-1-(5′-methyl-3,4,5,6-tetrahydro-2H-[1,2′]bipyridinyl-4-carbonyl)-pyrrolidin-3-yl]-ethyl-carbamic acid 4-fluoro-phenyl ester] | 2 nM |
| CCN(C(=O)Oc1ccc(F)cc1)[C@H]1CN(C(=O)C2CCN(c3ccc(C#N)cn3)CC2)C[C@@H]1c1ccc(Cl)cc1 [Example 22, [(3R,4S)-4-(4-Chloro-phenyl)-1-(5′-cyano-3,4,5,6-tetrahydro-2H-[1,2′]bipyridinyl-4-carbonyl)-pyrrolidin-3-yl]-ethyl-carbamic acid 4-fluoro-phenyl ester] | 25 nM |
| CCN(CC)CC(=O)c1ccc(N2CCC(C(=O)N3C[C@@H](N(CC)C(=O)Oc4ccc(F)cc4)[C@H](c4ccc(F)cc4)C3)CC2)nc1 [Example 122, [(3S,4R)-1-[5′-(2-Diethylamino-acetyl)-3,4,5,6-tetrahydro-2H-[1,2′]bipyridinyl-4-carbonyl]-4-(4-fluoro-phenyl)-pyrrolidin-3-yl]-ethyl-carbamic acid 4-fluoro-phenyl ester] | 69.6 nM |
| CC1(C(=O)N2CCC(C(=O)N3C[C@@H](N(C(=O)Oc4ccc(F)cc4)C4CC4)[C@H](c4ccc(Cl)c(Cl)c4)C3)CC2)CC1 (racemic) [Example 4, rac-{(3S,4R)-4-(3,4-Dichloro-phenyl)-1-[1-(1-methyl-cyclopropanecarbonyl)-piperidine-4-carbonyl]-pyrrolidin-3-yl}-cyclopropyl-carbamic acid 4-fluoro-phenyl ester] | 10 nM |
| CCN(C(=O)Oc1ccc(F)cc1)[C@@H]1CN(C(=O)C2CCN(C(=O)C3CCC(=O)NC3)CC2)C[C@H]1c1ccc(F)c(F)c1 (stereo partly drawn) [Example 107, {(3S,4R)-4-(3,4-Difluoro-phenyl)-1-[1-(6-oxo-piperidine-3-carbonyl)-piperidine-4-carbonyl]-pyrrolidin-3-yl}-ethyl-carbamic acid 4-fluoro-phenyl ester] | 131 nM |
| CCN(C(=O)Oc1ccc(F)cc1)[C@@H]1CN(C(=O)C2CCN(c3ccc(Cl)cn3)CC2)C[C@H]1c1ccc(Cl)c(F)c1 [Example 41, [(3S,4R)-4-(4-Chloro-3-fluoro-phenyl)-1-(5′-chloro-3,4,5,6-tetrahydro-2H-[1,2′]bipyridinyl-4-carbonyl)-pyrrolidin-3-yl]-ethyl-carbamic acid 4-fluoro-phenyl ester] | 0.6 nM |
| CCN(C(=O)Oc1ccc(F)cc1)[C@@H]1CN(C(=O)C2CCN(c3ccc(C(F)(F)F)cn3)CC2)C[C@H]1c1ccc(Cl)c(Cl)c1 [Example 114, [(3S,4R)-4-(3,4-Dichloro-phenyl)-1-(5′-trifluoromethyl-3,4,5,6-tetrahydro-2H-[1,2′]bipyridinyl-4-carbonyl)-pyrrolidin-3-yl]-ethyl-carbamic acid 4-fluoro-phenyl ester] | 1.6 nM |
| CCN(C(=O)Oc1ccc(F)cc1)[C@@H]1CN(C(=O)C2CCN(c3ccc(Cl)cn3)CC2)C[C@H]1c1ccc(F)c(F)c1 [Example 49, [(3S,4R)-1-(5′-Chloro-3,4,5,6-tetrahydro-2H-[1,2′]bipyridinyl-4-carbonyl)-4-(3,4-difluoro-phenyl)-pyrrolidin-3-yl]-ethyl-carbamic acid 4-fluoro-phenyl ester] | 5 nM |

Same assay, conditions: read-out: Data Ki (hNK-3 receptor affinity)

| Structure (SMILES) | Ki |
| --- | --- |
| CCN(C(=O)Oc1ccc(F)cc1)[C@@H]1CN(C(=O)C2CCN(C(=O)C3(C(F)(F)F)CC3)CC2)C[C@H]1c1ccc(Cl)c(F)c1 [Example 71, {(3S,4R)-4-(4-Chloro-3-fluoro-phenyl)-1-[1-(1-trifluoromethyl-cyclopropanecarbonyl)-piperidine-4-carbonyl]-pyrrolidin-3-yl}-ethyl-carbamic acid 4-fluoro-phenyl ester] | 4 nM |
| CCN(C(=O)Oc1ccc(F)cc1)[C@@H]1CN(C(=O)C2CCN(c3ccc(C(F)(F)F)cn3)CC2)C[C@H]1c1ccc(F)c(Cl)c1 [Example 119, [(3S,4R)-4-(3-Chloro-4-fluoro-phenyl)-1-(5′-trifluoromethyl-3,4,5,6-tetrahydro-2H-[1,2′]bipyridinyl-4-carbonyl)-pyrrolidin-3-yl]-ethyl-carbamic acid 4-fluoro-phenyl ester] | 3.7 nM |
| N#Cc1ccc(N2CCC(C(=O)N3C[C@@H](N(C(=O)Oc4ccc(F)cc4)C4CC4)[C@H](c4ccc(Cl)cc4)C3)CC2)nn1 [Example 32, {(3S,4R)-4-(4-Chloro-phenyl)-1-[1-(6-cyano-pyridazin-3-yl)-piperidine-4-carbonyl]-pyrrolidin-3-yl}-cyclopropyl-carbamic acid 4-fluoro-phenyl ester] | 52 nM |
